pIC50: −log10 of the molar value.
Columns and labels:
[1] = molecular target: T1, hChoKβ FL (Homo sapiens, UniProt Q9Y259); assay: Biochemical kinase inhibition assay (Kinase-Glo Luminescent Kinase Assay) on hChoKβ FL; conditions: ATP 5 μM, choline 20 μM, 60 minutes at rt; read-out: IC50 ChoKβ
T1 construct: hChoKβ full length (FL), corresponding to aminoacids 2-395; GST (N, cleaved yes); Prescission Protease recognition site (N, cleaved yes); made in house; host or cells: Escherichia coli BL21pLysS (DE3)
T1 sequence (Q9Y259 2-395): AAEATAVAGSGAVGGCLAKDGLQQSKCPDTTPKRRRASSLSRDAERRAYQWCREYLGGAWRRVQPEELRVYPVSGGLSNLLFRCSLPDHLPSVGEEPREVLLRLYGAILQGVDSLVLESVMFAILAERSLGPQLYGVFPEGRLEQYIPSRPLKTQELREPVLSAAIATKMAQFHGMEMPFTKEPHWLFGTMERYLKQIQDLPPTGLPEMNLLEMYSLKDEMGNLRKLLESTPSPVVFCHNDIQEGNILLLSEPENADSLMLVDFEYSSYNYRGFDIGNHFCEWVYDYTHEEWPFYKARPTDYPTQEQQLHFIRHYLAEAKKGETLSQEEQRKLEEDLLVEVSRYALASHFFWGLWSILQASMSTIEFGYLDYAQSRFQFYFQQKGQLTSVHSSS

[2] = molecular target: T2, Δ49N-hChoKα (Homo sapiens, UniProt P35790); assay: Biochemical kinase inhibition assay (Kinase-Glo Luminescent Kinase Assay) on Δ49N-hChoKα; conditions: ATP 5 μM, choline 5 μM, 60 minutes at rt; read-out: IC50 ChoKα
T2 construct: cDNA fragment 362-1534, corresponding to aminoacids 50-457; GST (N, cleaved yes); Prescission Protease recognition site (N, cleaved yes); made in house; host or cells: Escherichia coli BL21pLysS (DE3)
T2 sequence (P35790 50-457, stated change not applied): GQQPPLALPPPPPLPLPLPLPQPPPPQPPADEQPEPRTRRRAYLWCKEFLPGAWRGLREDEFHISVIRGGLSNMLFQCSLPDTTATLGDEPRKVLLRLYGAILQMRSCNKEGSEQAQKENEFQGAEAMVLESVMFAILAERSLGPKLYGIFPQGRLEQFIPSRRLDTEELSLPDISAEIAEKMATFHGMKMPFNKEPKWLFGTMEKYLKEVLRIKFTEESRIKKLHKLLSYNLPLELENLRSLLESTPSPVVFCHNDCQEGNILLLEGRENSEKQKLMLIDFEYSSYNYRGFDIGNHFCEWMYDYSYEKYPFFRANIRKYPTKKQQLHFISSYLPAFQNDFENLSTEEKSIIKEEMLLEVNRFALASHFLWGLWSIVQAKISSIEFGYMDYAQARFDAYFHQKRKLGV

Row | Compound | pIC50 [1] | pIC50 [2]
1 | Cc1cccc(NC(=O)[C@H]2CC[C@@H](n3cnc4c(N)nc(Cl)nc43)CC2)c1 [cpd 48, cis-4-(6-amino-2-chloro-9H-purin-9-yl)-N-(3-methylphenyl)cyclohexanecarboxamide] | < 5.00 | 6.55
2 | Cc1csc(NC(=O)[C@H]2CC[C@@H](n3cnc4c(N)nc(-c5cc[nH]n5)nc43)CC2)n1 [cpd 112, cis-4-[6-amino-2-(1H-pyrazol-3-yl)-9H-purin-9-yl]-N-(4-methyl-1,3-thiazol-2-yl)cyclohexanecarboxamide] | < 5.00 | 6.92
3 | Cc1csc(NC(=O)[C@H]2CC[C@@H](n3cnc4c(N)nc(-c5cccc(C(N)=O)c5)nc43)CC2)n1 [cpd 96, 3-(6-amino-9-{cis-4-[(4-methyl-1,3-thiazol-2-yl)carbamoyl]cyclohexyl}-9H-purin-2-yl)benzamide] | < 5.00 | 6.56
4 | Cc1csc(NC(=O)[C@H]2CC[C@@H](n3cnc4c(N)nc(-c5cccc(OCc6ccccc6)c5)nc43)CC2)n1 [cpd 100, cis-4-{6-amino-2-[3-(benzyloxy)phenyl]-9H-purin-9-yl}-N-(4-methyl-1,3-thiazol-2-yl)cyclohexanecarboxamide] | < 5.00 | 6.61
5 | COC(=O)[C@H]1CC[C@@H](n2cnc3c(N)nc(Cl)nc32)CC1 [cpd 88, methyl cis-4-(6-amino-2-chloro-9H-purin-9-yl)cyclohexanecarboxylate] | < 5.00 | 6.28
6 | Cc1csc(NC(=O)[C@H]2CC[C@@H](n3cnc4c(N)nc(I)nc43)CC2)n1 [cpd 70, cis-4-(6-amino-2-iodo-9H-purin-9-yl)-N-(4-methyl-1,3-thiazol-2-yl)cyclohexanecarboxamide] | < 5.00 | 7.47
7 | Cc1csc(NC(=O)[C@H]2CC[C@H](n3cnc4c(N)nc(-c5cccc(C(N)=O)c5)nc43)CC2)n1 [cpd 97, 3-(6-amino-9-{trans-4-[(4-methyl-1,3-thiazol-2-yl)carbamoyl]cyclohexyl}-9H-purin-2-yl)benzamide] | < 5.00 | 6.32
8 | Nc1nc(Cl)nc2c1ncn2[C@H]1CC[C@@H](C(=O)Nc2nc(CN3CCC(N)CC3)cs2)CC1 [cpd 120, cis-4-(6-amino-2-chloro-9H-purin-9-yl)-N-{4-[(4-aminopiperidin-1-yl)methyl]-1,3-thiazol-2-yl}cyclohexanecarboxamide] | < 5.00 | 7.40
9 | Nc1nc(Cl)nc2c1ncn2[C@H]1CC[C@@H](C(=O)Nc2nc3cc(Cl)ccc3o2)CC1 [cpd 94, cis-4-(6-amino-2-chloro-9H-purin-9-yl)-N-(5-chloro-1,3-benzoxazol-2-yl)cyclohexanecarboxamide] | 5.25 | 6.75
10 | Cc1csc(NC(=O)[C@H]2CC[C@@H](n3cnc4c(N)nc(C#N)nc43)CC2)n1 [cpd 102, cis-4-(6-amino-2-cyano-9H-purin-9-yl)-N-(4-methyl-1,3-thiazol-2-yl)cyclohexanecarboxamide] | < 5.00 | 7.06
11 | Nc1nc(Cl)nc2c1ncn2[C@H]1CC[C@@H](C(=O)Nc2ccc(C(=O)NC3CCCCC3)cc2)CC1 [cpd 71, 4-({[cis-4-(6-amino-2-chloro-9H-purin-9-yl)cyclohexyl]carbonyl}amino)-N-cyclohexylbenzamide] | 5.55 | 6.43
12 | COc1cccc(NC(=O)[C@H]2CC[C@@H](n3cnc4c(N)nc(OC)nc43)CC2)c1 [cpd 83, cis-4-(6-amino-2-methoxy-9H-purin-9-yl)-N-(3-methoxyphenyl)cyclohexanecarboxamide] | < 5.00 | 6.37
13 | Nc1nc(Cl)nc2c1ncn2[C@H]1CC[C@@H](C(N)=O)CC1 [cpd 53, cis-4-(6-amino-2-chloro-9H-purin-9-yl)cyclohexanecarboxamide] | < 5.00 | 6.07

The next lines start with the values.

Row | pIC50 [1] | pIC50 [2] | Compound
14 | < 5.00 | 7.18 | Nc1nc(Cl)nc2c1ncn2[C@H]1CC[C@@H](C(=O)Nc2nc3ccc(OC(F)(F)F)cc3s2)CC1 [cpd 181, cis-4-(6-amino-2-chloro-9H-purin-9-yl)-N-[6-(trifluoromethoxy)-1,3-benzothiazol-2-yl]cyclohexanecarboxamide]
15 | 5.70 | 7.77 | CC(=O)Nc1ccc2nc(NC(=O)[C@H]3CC[C@@H](n4cnc5c(N)nc(Cl)nc54)CC3)sc2c1 [cpd 183, cis-N-[6-(acetylamino)-1,3-benzothiazol-2-yl]-4-(6-amino-2-chloro-9H-purin-9-yl)cyclohexanecarboxamide]
16 | < 5.00 | 7.35 | Nc1nc(Cl)nc2c1ncn2[C@H]1CC[C@@H](C(=O)Nc2nc3cc(F)c(F)cc3s2)CC1 [cpd 168, cis-4-(6-amino-2-chloro-9H-purin-9-yl)-N-(5,6-difluoro-1,3-benzothiazol-2-yl)cyclohexanecarboxamide]
17 | < 5.00 | 7.62 | Nc1nc(F)nc2c1ncn2[C@H]1CC[C@@H](C(=O)Nc2nc3c(s2)COCC3)CC1 [cpd 200, cis-4-(6-amino-2-fluoro-9H-purin-9-yl)-N-(6,7-dihydro-4H-pyrano[4,3-d][1,3]thiazol-2-yl)cyclohexanecarboxamide]
18 | < 5.00 | 7.42 | Nc1nc(F)nc2c1ncn2[C@H]1CC[C@@H](C(=O)Nc2nc3ccc(F)cc3s2)CC1 [cpd 128, cis-4-(6-amino-2-fluoro-9H-purin-9-yl)-N-(6-fluoro-1,3-benzothiazol-2-yl)cyclohexanecarboxamide]
19 | 5.26 | 7.28 | CC(C)(C)OC(=O)N1CCc2nc(NC(=O)[C@H]3CC[C@@H](n4cnc5c(N)nc(Cl)nc54)CC3)sc2C1 [cpd 169, tert-butyl 2-({[cis-4-(6-amino-2-chloro-9H-purin-9-yl)cyclohexyl]carbonyl}amino)-6,7-dihydro[1,3]thiazolo[5,4-c]pyridine-5(4H)-carboxylate]
20 | < 5.00 | 6.71 | Nc1nc2c(OC(=O)[C@H]3CC[C@@H](n4cnc5c(N)nc(F)nc54)CC3)cccc2s1 [cpd 160, 2-amino-1,3-benzothiazol-4-yl cis-4-(6-amino-2-fluoro-9H-purin-9-yl)cyclohexanecarboxylate]
21 | < 5.00 | 7.22 | CN(C)c1ccc2nc(NC(=O)[C@H]3CC[C@@H](n4cnc5c(N)nc(Cl)nc54)CC3)sc2c1 [cpd 165, cis-4-(6-amino-2-chloro-9H-purin-9-yl)-N-[6-(dimethylamino)-1,3-benzothiazol-2-yl]cyclohexanecarboxamide]
22 | < 5.00 | 7.35 | Nc1nc(F)nc2c1ncn2[C@H]1CC[C@@H](C(=O)Nc2nc3c(O)cccc3s2)CC1 [cpd 127, cis-4-(6-amino-2-fluoro-9H-purin-9-yl)-N-(4-hydroxy-1,3-benzothiazol-2-yl)cyclohexanecarboxamide]
23 | 5.24 | 6.98 | Nc1nc(Cl)nc2c1ncn2[C@H]1CC[C@@H](C(=O)Nc2nc3cc(F)c(F)c(F)c3s2)CC1 [cpd 171, cis-4-(6-amino-2-chloro-9H-purin-9-yl)-N-(5,6,7-trifluoro-1,3-benzothiazol-2-yl)cyclohexanecarboxamide]
24 | < 5.00 | 7.39 | COC(=O)Cc1ccc2nc(NC(=O)[C@H]3CC[C@@H](n4cnc5c(N)nc(Cl)nc54)CC3)sc2c1 [cpd 174, methyl [2-({[cis-4-(6-amino-2-chloro-9H-purin-9-yl)cyclohexyl]carbonyl}amino)-1,3-benzothiazol-6-yl]acetate]

From patent US10683292B2, “Purine and 3-deazapurine analogues as choline kinase inhibitors” (NERVIANO MEDICAL SCIENCES S.R.L., priority 2016, dated 2020)
